In US20210023034A1, “PHENYLALANINE DERIVATIVES FOR USE IN THE TREATMENT OF CANCERS” (UNIVERSITE PARIS EST CRETEIL VAL DE MARNE, priority 2018, published 2021):

How the values were obtained:
Jurkat cells [1] = test: Jurkat cell counts (Trypan blue); assay type: cell-based; conditions: for Jurkat cell proliferation measured by cell counting: Trypan blue counts at days 1, 2, 3 and 6
Description: (§1) Cell counts. Jurkat cells were seeded at 0.1×10^6/mL in a 24-well plate and an aliquot mixed with Trypan blue and counted at days 1, 2, 3, and 6 using disposable Fast-read 10 chambers. Evaluation of metabolic proliferation. Jurkat cells were seeded at 0.1×10^6/mL in a 96-well plate and incubated at 37° C. in 5% CO2 for various times. At each time point, cells were centrifuged, the medium removed, and CellTiter 96® Non-Radioactive Cell Proliferation Assay reagent (Promega) added and the cells incubated an additional 4 h before measuring the optical density at 570 nm in a plate reader (BMG Labtech Fluostar Optima).
(§2) (A) Jurkat cells were seeded at 0.1×10^6/mL in a 24-well plate and an aliquot mixed with Trypan blue and counted at days 1, 2, 3, and 6. Data are the average±SD of three independent experiments. (B) Jurkat cells were seeded at 0.1×10^6/mL in a 96-well plate and incubated at 37° C. in 5% CO2 for the times indicated in FIG. 2. At each time point, cells were centrifuged, the medium removed, and the CellTiter 96® Non-Radioactive Cell Proliferation Assay (Promega) performed. Data are reported as the percentage of proliferation relative to that of the control samples (treated with DMSO) and are the average±SD of three independent experiments. *** p<0,001, **** p<0,0001 Two-way ANOVA test.

Recombinant human IL4I1 = target: T1, Recombinant human IL4I1 (Homo sapiens, UniProt Q96RQ9); test: Evaluation of Ki, fluorometric IL4I1 assay; assay type: biochemical; conditions: for Ki: average of three experiments; for IL4I1 Inhibitor: recombinant human IL4I1, 30 min pre-incubation
T1 construct: purchased R&D Systems, Inc
T1 sequence (Q96RQ9 22-567): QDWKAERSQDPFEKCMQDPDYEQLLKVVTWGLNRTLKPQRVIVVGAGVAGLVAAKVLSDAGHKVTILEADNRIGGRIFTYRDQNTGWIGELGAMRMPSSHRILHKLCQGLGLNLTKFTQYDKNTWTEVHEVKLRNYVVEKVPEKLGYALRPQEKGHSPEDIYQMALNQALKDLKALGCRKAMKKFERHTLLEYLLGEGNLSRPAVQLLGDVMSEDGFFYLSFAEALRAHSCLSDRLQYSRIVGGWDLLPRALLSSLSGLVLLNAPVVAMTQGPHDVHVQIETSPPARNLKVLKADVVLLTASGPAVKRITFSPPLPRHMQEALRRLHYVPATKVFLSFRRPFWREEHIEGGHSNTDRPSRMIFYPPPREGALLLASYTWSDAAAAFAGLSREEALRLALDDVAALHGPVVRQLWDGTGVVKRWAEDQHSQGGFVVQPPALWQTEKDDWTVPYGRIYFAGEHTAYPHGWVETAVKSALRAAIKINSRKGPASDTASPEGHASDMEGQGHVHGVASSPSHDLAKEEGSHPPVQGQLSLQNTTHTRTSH
Description: Evaluation of Ki. Recombinant human IL4I1 (from R&D Systems, Inc) was diluted in PBS at 100 µg/mL and pre-incubated for 30 min with decreasing amounts of each inhibitor dissolved in DMSO (50, 25, and 2.5 μM) or DMSO as a control. The activity was tested in the presence of various amounts of substrate ([…] phenylalanine) using the fluorometric IL4I1 assay described by Carbonnelle-Puscian et al. (Leukemia, 2009, volume 23, pages 952-960 (2009). Ki were calculated using Graph Pad Prism.
Recombinant human IL4I1 was diluted in PBS at 100 µg/mL and pre-incubated for 30 min with decreasing amounts of each inhibitor dissolved in DMSO (50, 25, or 2.5 μM) or DMSO alone, as a control, and IL4I1 measured. […] Compound 13 inhibits IL4l1 activity with an almost 10-fold higher Ki.

Jurkat cells [2] = test: Evaluation of apoptosis, activated caspase-3 staining, Jurkat cells; assay type: cell-based; conditions: 100 μM, 24 h
Description: (§3) Evaluation of Apoptosis. Cells were seeded at 0.5×10^6/mL in 24-well plates, with or without the compounds at 100 μM or 10 μM etoposide (VP16) as a positive control, and incubated at 37° C. for 24 h. Cells were then fixed and permeabilized using cytox/cytoperm solution (BD Bioscience) followed by the addition of anti-activated caspase 3-AlexaFluor 647 (Rabbit anti-active Caspase 3 clone C92-605, BD Pharmingen). Caspase-3 positive cells were evaluated using a Cyan ADP LX7 (Beckman Coulter) and analyzed using Flowjo.
(§4) (A) Activated caspase-3 staining of Jurkat cells and (B) PBMC. Cells at 0.5×10^6/mL were seeded in 24-well plates with or without the compounds at 100 μM or 10 μM etoposide (VP16), as a positive control, and incubated at 37° C. for 24 h. Twenty-four hours after treatment, apoptotic Caspase-3 positive cells were evaluated by FACS. Data are expressed as the percentage of Caspase-3 positive cells±SD from three independent experiments.

Jurkat cells [3] = test: Metabolic proliferation (CellTiter 96 Non-Radioactive Cell Proliferation Assay); assay type: cell-based; conditions: CellTiter 96, relative to DMSO control
Description: as §1, §2

PBMC = test: Evaluation of apoptosis, activated caspase-3 staining, PBMC; assay type: cell-based, human; conditions: 100 μM, 24 h
Description: as §3, §4

PBMCs = test: Cell proliferation of CPD eFluor670-labeled, anti-CD3 stimulated PBMCs (FACS); assay type: cell-based, human; conditions: for division index / proliferation index: PBMCs, relative to cells treated with DMSO; for proliferation of PBMCs: anti-CD3 stimulated, days 3 and 6, relative to DMSO
Description: (§5) Evaluation of cell proliferation. Jurkat cells and PBMCs were labeled with 2 μM Cell Proliferation Dye (CPD) eFluor670 for 10 min at 37° C. DMSO or the compounds were added to labeled PBMCs or Jurkat cells before putting them in culture at 0.2×10^6/well. Jurkat cells were cultured under standard conditions, whereas PBMCs were cultured in 96 U-shaped wells pre-coated with a 0.5 μg/mL solution of anti-CD3 (clone OKT3) functional quality antibody (eBioscience). Cells were collected at day 0, 3, and 6 for fluorescence analysis using a Cyan ADP LX7 (Beckman Coulter). Data were analyzed using Flowjo.
Cell proliferation dye fluor670-labeled PBMCs were stimulated to proliferate in 96-well anti-CD3 coated plates and analyzed at days 3 and 6 by FACS gating on the lymphocytes population. (A) A typical FACS analysis at day 3 is shown. (B) The division (left panel) and proliferation indices (right panel) were calculated using FlowJo. Data are representative of three independent experiments.

Jurkat cells [4] = test: Cell proliferation of CPD eFluor670-labeled Jurkat cells (FACS); assay type: cell-based; conditions: data not shown
Description: as §5

[5] = compounds disclosed in WO2010/06685

| SMILES | Jurkat cell proliferation measured by cell counting (Jurkat cells [1]) | toxicity to Jurkat cells (Jurkat cells [1]; six days of culture) | Ki (Recombinant human IL4I1) | IL4I1 Inhibitor (Recombinant human IL4I1) | apoptosis of Jurkat cells (Caspase-3 positive cells) (Jurkat cells [2]) | Jurkat cell proliferation measured by metabolic labeling (Jurkat cells [3]) | apoptosis of PBMCs (Caspase-3 positive cells) (PBMC) | division index (PBMCs) | proliferation index (PBMCs) | proliferation of PBMCs (PBMCs) | fold higher Ki (Recombinant human IL4I1; Ki compared with the other tested compounds) | proliferation of Jurkat cells (Jurkat cells [4]) | Ki (Recombinant human IL4I1; [5]) |
| --- | --- | --- | --- | --- | --- | --- | --- | --- | --- | --- | --- | --- | --- |
| CCOC(=O)C(Cc1ccccc1)Nc1ccccc1 (stereo not shown) [Cp 15] | no cells remained after six days of culture | toxic | 26.9 µM | Yes | – | – | – | – | – | – | – | – | – |
| CCOC(=O)C(Cc1ccccc1)N(CC)CC (stereo not shown) [Cp 13] | do not affect cell proliferation | – | 102 µM | Yes | do not induce significant apoptosis | do not affect cell proliferation | do not induce significant apoptosis | do not vary markedly | do not vary markedly | not substantially modified | ~10 fold | not substantially modified | – |
| CCCNC(Cc1ccccc1)C(=O)OCC (stereo not shown) [Cp 2] | do not affect cell proliferation | – | 21.3 µM | Yes | do not induce significant apoptosis | do not affect cell proliferation | do not induce significant apoptosis | do not vary markedly | do not vary markedly | not substantially modified | – | not substantially modified | – |
| CCOC(=O)C(Cc1ccccc1)Nc1ccccc1C(O)C(=O)OCC (stereo not shown) [Cp 16] | – | – | 25 µM | Yes | does not induce apoptosis | – | – | – | – | – | – | – | – |
| CCOC(=O)[C@@H](N)Cc1ccccc1 [L-phenylalanine ethyl ester, reference compound] | – | – | – | – | – | – | – | – | – | – | – | – | 3100 µM |
| CC(=O)N[C@@H](Cc1ccccc1)C(=O)O [N-acetyl-phenylalanine, reference compound] | – | – | – | – | – | – | – | – | – | – | – | – | 2100 µM |
| CCOC(=O)C(Cc1c(Cl)cccc1Cl)N1CCCCC1 (stereo not shown) [Cp 7] | strongly inhibits proliferation | – | 9.8 µM | Yes | induced | strongly inhibits proliferation | induced | – | – | – | – | – | – |
| NC(Cc1ccccn1)C(=O)O (stereo not shown) [2′-aza-phenylalanine, reference compound] | – | – | – | – | – | – | – | – | – | – | – | – | 2800 µM |
